Assay results from patent JP2014001205A, “動物の寄生虫防除剤” (Nissan Chemical Corp, priority 2012, dated 2014).

Experiments:
[1] = tested on: cat flea (Ctenocephalides felis) adults [ネコノミ(Ctenocephalides felis)成虫]; test: Efficacy test against cat flea (Test Example 1), glass container film contact; type: in vivo; conditions: 96 h, 10μg/cm2, 5 adults (mixed sex), 25℃, 4 days, duplicate, read-out: efficacy (number of insects with abnormal behaviour due to compound / number released × 100)
[2] = tested on: American dog tick (Dermacentor variabilis) first nymphs [American dog tick(Dermacentor variabilis)第1若虫]; test: Efficacy test against American dog tick (Test Example 2), glass container film contact; type: in vivo; conditions: 96 h, 10μg/cm2, 5 first nymphs (mixed sex), 25℃, 4 days, duplicate, read-out: efficacy (number with abnormal behaviour due to compound / number released × 100)

| Compound | pest or weed control at 10 µg/cm2 [1] [%] | pest or weed control at 10 µg/cm2 [2] [%] |
| --- | --- | --- |
| CCN(C(=O)CS(C)(=O)=O)c1cn(-c2cccnc2)nc1Cl [1−080] | ≥ 80 | ≥ 80 |
| CCN(C(=O)[C@H](C)CS(C)(=O)=O)c1cn(-c2cccnc2)nc1Cl [1−050(S)−(+)] | ≥ 80 | ≥ 80 |
| CCN(C(=O)CSC)c1cn(-c2cccnc2)nc1Cl [1−079] | ≥ 80 | ≥ 80 |
| CCN(C(=O)C=CSC)c1cn(-c2cccnc2)nc1Cl (single isomer, unassigned) [1−071] | ≥ 80 | ≥ 80 |
| CSC[C@@H](C)C(=O)N(C)c1cn(-c2cccnc2)nc1Cl [1−039(S)−(−)] | ≥ 80 | ≥ 80 |
| CCN(C(=O)CCCS(C)(=O)=O)c1cn(-c2cccnc2)nc1Cl [1−528] | ≥ 80 |  |
| CCN(C(=O)CCCSC)c1cn(-c2cccnc2)nc1Cl [1−520] | ≥ 80 |  |
| CCN(C(=O)COC(C)=O)c1cn(-c2cccnc2)nc1Cl [1−082] | ≥ 80 | ≥ 80 |
| CCCC(C)C(=O)N(CC)c1cn(-c2cccnc2)nc1Cl (stereo not drawn) [1−483] | ≥ 80 | ≥ 80 |
| CCCSC(C)C(=O)N(CC)c1cn(-c2cccnc2)nc1Cl (stereo not drawn) [1−246] | ≥ 80 | ≥ 80 |
| CNC(=S)Nc1cn(-c2cccnc2)nc1Cl [1−552] | ≥ 80 |  |
| CCc1nn(-c2cccnc2)cc1NC(=O)OC(C)(C)C [1−435] | ≥ 80 | ≥ 80 |
